Measured values published in paper PMC4560423, “Identification and Characterization of a Novel Galactofuranose-Specific β-D-Galactofuranosidase from Streptomyces Species” (PLoS ONE, 2015).

Columns and labels:
[1] = target: T1, ORF1110 Galf-ase (ORF1110 protein) (Streptomyces sp. JHA19, UniProt A0A0K2SRV3); assay: inhibition of pNP-β-D-Galf hydrolysis, pNP absorbance at […] nm; format: biochemical
T1 construct: recombinant from E. coli BL21(DE3)CodonPlus, pET50b, N-terminal 2xHis6 and Nus tags (cut by HRV3C for TLC only); ORF 786 aa; GH2 with C-terminal AbfB domain
T1 sequence (A0A0K2SRV3 46-786): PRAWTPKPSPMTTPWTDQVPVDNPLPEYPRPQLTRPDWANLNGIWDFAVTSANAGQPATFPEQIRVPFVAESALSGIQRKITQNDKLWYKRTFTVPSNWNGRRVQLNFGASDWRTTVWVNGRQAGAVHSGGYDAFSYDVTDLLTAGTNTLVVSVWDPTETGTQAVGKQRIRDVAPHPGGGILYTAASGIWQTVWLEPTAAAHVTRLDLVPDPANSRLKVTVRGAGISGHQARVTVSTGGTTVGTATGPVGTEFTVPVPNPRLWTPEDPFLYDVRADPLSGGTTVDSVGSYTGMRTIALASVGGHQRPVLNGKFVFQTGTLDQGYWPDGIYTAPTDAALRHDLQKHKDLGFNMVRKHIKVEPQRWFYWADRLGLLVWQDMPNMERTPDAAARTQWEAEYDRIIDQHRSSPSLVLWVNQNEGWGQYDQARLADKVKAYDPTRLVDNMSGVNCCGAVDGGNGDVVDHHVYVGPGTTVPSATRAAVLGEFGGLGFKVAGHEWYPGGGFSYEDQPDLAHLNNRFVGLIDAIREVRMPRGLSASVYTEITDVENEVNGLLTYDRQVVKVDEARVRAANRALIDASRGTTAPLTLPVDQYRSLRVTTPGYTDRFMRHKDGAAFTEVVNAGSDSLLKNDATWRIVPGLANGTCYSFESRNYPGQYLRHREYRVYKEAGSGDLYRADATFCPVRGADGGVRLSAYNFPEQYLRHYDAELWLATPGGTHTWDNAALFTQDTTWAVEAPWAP

[2] = test system: O=[N+]([O-])c1ccc(O[C@@H]2O[C@@H]([C@H](O)CO)[C@H](O)[C@H]2O)cc1; assay: purified protein; details: 37 °C, acetate buffer pH 4.5 (general assay; pH of the kinetics not stated)

Row | Ki [1] [mM] | Molecule | Km [2] [mM]
1 | 51 | O=C1O[C@@H](CO)[C@H](O)[C@H]1O [L-arabino-1,4-lactone] | –
2 | – | ORF1110 Galf-ase (ORF1110 protein) (Streptomyces sp. JHA19) | 4.4
